# How the values were obtained:
# Type in all cases: in vivo
# Conditions in all cases: evaluated after 13 days
# [1] = test system: Setaria faberi (SETFA); experiment: Post-emergence Test, Setaria faberi (SETFA); parameters: key to percentage damage caused to the plant, SETFA (five-point scale): 5=81-100%, 4=61-80%, 3=41-60%, 2=21-40%, 1=0-20% damage
# How it was run: (§1)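 Application was a spray of acetone/water (50:50) with 0.5% Tween 20 onto pots of test species sown in standard soil. Unless otherwise stated, the rate was 1000 g/ha. After 13 days under glasshouse conditions (24/16 °C, 65% humidity), injury was scored from 1 (0-20%) to 5 (81-100%).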
# [2] = test system: Amaranthus retoflexus (AMARE); experiment: Pre-emergence Test, Amaranthus retoflexus (AMARE)
# [3] = test system: Amaranthus palmeri (AMAPA); experiment: Pre-emergence Test, Amaranthus palmeri (AMAPA)
# [4] = test system: Ipomoea hederacea (IPOHE); experiment: Pre-emergence Test, Ipomoea hederacea (IPOHE)
# [5] = test system: Ipomoea hederacea (IPOHE); experiment: Post-emergence Test, Ipomoea hederacea (IPOHE); parameters: key to percentage damage caused to the plant, IPOHE (five-point scale): 5=81-100%, 4=61-80%, 3=41-60%, 2=21-40%, 1=0-20% damage
# How it was run: as §1
# [6] = test system: Zea mays (ZEAMX); experiment: Pre-emergence Test, Zea mays (ZEAMX)
# [7] = test system: Echinochloa crus-galli (ECHCG); experiment: Pre-emergence Test, Echinochloa crus-galli (ECHCG)
# [8] = test system: Echinochloa crus-galli (ECHCG); experiment: Post-emergence Test, Echinochloa crus-galli (ECHCG); parameters: key to percentage damage caused to the plant, ECHCG (five-point scale): 5=81-100%, 4=61-80%, 3=41-60%, 2=21-40%, 1=0-20% damage
# How it was run: as §1
# [9] = test system: Amaranthus palmeri (AMAPA); experiment: Post-emergence Test, Amaranthus palmeri (AMAPA); parameters: key: 5=81-100%, 4=61-80%, 3=41-60%, 2=21-40%, 1=0-20% damage
# How it was run: as §1
# [10] = test system: Amaranthus retoflexus (AMARE); experiment: Post-emergence Test, Amaranthus retoflexus (AMARE); parameters: key to percentage damage caused to the plant, AMARE (five-point scale): 5=81-100%, 4=61-80%, 3=41-60%, 2=21-40%, 1=0-20% damage
# How it was run: as §1
# [11] = test system: Zea mays (ZEAMX); experiment: Post-emergence Test, Zea mays (ZEAMX); parameters: key to percentage damage caused to the plant, ZEAMX (five-point scale): 5=81-100%, 4=61-80%, 3=41-60%, 2=21-40%, 1=0-20% damage
# How it was run: as §1
# [12] = test system: Setaria faberi (SETFA); experiment: Pre-emergence Test, Setaria faberi (SETFA)
compound,measurement,setting,value
"Cn1c(Cn2ccc(C(F)(F)F)n2)cc(=O)c(C(=O)O)c1-c1ccc(C#N)c(Cl)c1 [Compound 117, 2-(3-chloro-4-cyano-phenyl)-1-methyl-4-oxo-6-[[3-(trifluoromethyl)pyrazol-1-yl]methyl]pyridine-3-carboxylic acid]","percentage damage caused to the plant, SETFA (five-point scale)",[1]; 250 g/Ha,3 (3=41-60%)
same,"percentage damage caused to the plant, SETFA (five-point scale)",[1]; 1000 g/ha,4 (4=61-80%)
same,"Pre-emergence Test AMARE, percentage damage caused to the plant (five-point scale)",[2]; 250 g/Ha (*),0
same,"Pre-emergence Test AMARE, percentage damage caused to the plant (five-point scale)",[2]; 1000 g/ha,2 (2=21-40%)
same,"Pre-emergence Test AMAPA, percentage damage caused to the plant (five-point scale)",[3]; 250 g/Ha (*),1 (1=0-20%)
same,"Pre-emergence Test AMAPA, percentage damage caused to the plant (five-point scale)",[3]; 1000 g/ha,2 (2=21-40%)
same,"Pre-emergence Test IPOHE, percentage damage caused to the plant (five-point scale)",[4]; 250 g/Ha (*),0
same,"Pre-emergence Test IPOHE, percentage damage caused to the plant (five-point scale)",[4]; 1000 g/ha,2 (2=21-40%)
same,"percentage damage caused to the plant, IPOHE (five-point scale)",[5]; 250 g/Ha,3 (3=41-60%)
same,"percentage damage caused to the plant, IPOHE (five-point scale)",[5]; 1000 g/ha,3 (3=41-60%)
same,"Pre-emergence Test ZEAMX, percentage damage caused to the plant (five-point scale)",[6]; 250 g/Ha (*),0
same,"Pre-emergence Test ZEAMX, percentage damage caused to the plant (five-point scale)",[6]; 1000 g/ha,1 (1=0-20%)
same,"Pre-emergence Test ECHCG, percentage damage caused to the plant (five-point scale)",[7]; 250 g/Ha (*),3 (3=41-60%)
same,"Pre-emergence Test ECHCG, percentage damage caused to the plant (five-point scale)",[7]; 1000 g/ha,4 (4=61-80%)
same,"percentage damage caused to the plant, ECHCG (five-point scale)",[8]; 250 g/Ha,3 (3=41-60%)
same,"percentage damage caused to the plant, ECHCG (five-point scale)",[8]; 1000 g/ha,4 (4=61-80%)
same,"percentage damage caused to the plant, AMAPA (five-point scale)",[9]; 250 g/Ha,0
same,"percentage damage caused to the plant, AMAPA (five-point scale)",[9]; 1000 g/ha,2 (2=21-40%)
same,"percentage damage caused to the plant, AMARE (five-point scale)",[10]; 250 g/Ha,0
same,"percentage damage caused to the plant, AMARE (five-point scale)",[10]; 1000 g/ha,1 (1=0-20%)
same,"percentage damage caused to the plant, ZEAMX (five-point scale)",[11]; 250 g/Ha,1 (1=0-20%)
same,"percentage damage caused to the plant, ZEAMX (five-point scale)",[11]; 1000 g/ha,4 (4=61-80%)
same,"Pre-emergence Test SETFA, percentage damage caused to the plant (five-point scale)",[12]; 250 g/Ha (*),4 (4=61-80%)
same,"Pre-emergence Test SETFA, percentage damage caused to the plant (five-point scale)",[12]; 1000 g/ha,5 (5=81-100%)
"CCn1c(Cn2nc(C)cc2Cl)cc(=O)c(C(=O)O)c1-c1ccc(Cl)c(Cl)c1 [Compound 17, 6-[(5-chloro-3-methyl-pyrazol-1-yl)methyl]-2-(3,4-dichlorophenyl)-1-ethyl-4-oxo-pyridine-3-carboxylic acid]","percentage damage caused to the plant, SETFA (five-point scale)",[1]; 250 g/Ha,3 (3=41-60%)
same,"percentage damage caused to the plant, SETFA (five-point scale)",[1]; 1000 g/ha,4 (4=61-80%)
same,"Pre-emergence Test AMARE, percentage damage caused to the plant (five-point scale)",[2]; 1000 g/ha,2 (2=21-40%)
same,"Pre-emergence Test AMAPA, percentage damage caused to the plant (five-point scale)",[3]; 1000 g/ha,5 (5=81-100%)
same,"Pre-emergence Test IPOHE, percentage damage caused to the plant (five-point scale)",[4]; 1000 g/ha,3 (3=41-60%)
same,"percentage damage caused to the plant, IPOHE (five-point scale)",[5]; 250 g/Ha,3 (3=41-60%)
same,"percentage damage caused to the plant, IPOHE (five-point scale)",[5]; 1000 g/ha,5 (5=81-100%)
same,"Pre-emergence Test ZEAMX, percentage damage caused to the plant (five-point scale)",[6]; 1000 g/ha,2 (2=21-40%)
same,"Pre-emergence Test ECHCG, percentage damage caused to the plant (five-point scale)",[7]; 1000 g/ha,4 (4=61-80%)
same,"percentage damage caused to the plant, ECHCG (five-point scale)",[8]; 250 g/Ha,4 (4=61-80%)
same,"percentage damage caused to the plant, ECHCG (five-point scale)",[8]; 1000 g/ha,4 (4=61-80%)
same,"percentage damage caused to the plant, AMAPA (five-point scale)",[9]; 250 g/Ha,5 (5=81-100%)
same,"percentage damage caused to the plant, AMAPA (five-point scale)",[9]; 1000 g/ha,5 (5=81-100%)
same,"percentage damage caused to the plant, AMARE (five-point scale)",[10]; 250 g/Ha,5 (5=81-100%)
same,"percentage damage caused to the plant, AMARE (five-point scale)",[10]; 1000 g/ha,3 (3=41-60%)
same,"percentage damage caused to the plant, ZEAMX (five-point scale)",[11]; 250 g/Ha,2 (2=21-40%)
same,"percentage damage caused to the plant, ZEAMX (five-point scale)",[11]; 1000 g/ha,3 (3=41-60%)
same,"Pre-emergence Test SETFA, percentage damage caused to the plant (five-point scale)",[12]; 1000 g/ha,4 (4=61-80%)
